# Where a name gives a salt, the structure may show the parent alone.
# What was measured:
# Type in all cases: cell-based
# [1] = tested on: Klebsiella pneumoniae XNWB 0005; assay: MIC assay of test compounds combined with imipenem (4 μg/mL); conditions: imipenem 4 μg/mL fixed
# Outline: (§1)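 Here, growth inhibition was scored visually following CLSI guidelines once plates containing compound, fixed-dose β-lactam and diluted inoculum had stood 16-20 h at 35±2 °C. Cells were taken from TSA colonies, brought to OD600 0.1-0.15 in 0.9% NaCl, then diluted 300-fold in 1.1×CAMHB.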
# [2] = tested on: Acinetobacter baumannii XNWB 0007; assay: as above; conditions: imipenem 4 μg/mL fixed
# Outline: as §1
# [3] = tested on: Klebsiella pneumoniae XNWB 0004; assay: as above; conditions: imipenem 4 μg/mL fixed
# Outline: as §1
# [4] = tested on: Klebsiella pneumoniae XNWB 0001; assay: as above; conditions: imipenem 4 μg/mL fixed
# Outline: as §1
# [5] = tested on: Pseudomonas aeruginosa XNWB 0008; assay: as above; conditions: imipenem 4 μg/mL fixed
# Outline: as §1
# [6] = tested on: Klebsiella pneumoniae XNWB 0003; assay: as above; conditions: imipenem 4 μg/mL fixed
# Outline: as §1
# [7] = tested on: Klebsiella pneumoniae XNWB 0002; assay: as above; conditions: imipenem 4 μg/mL fixed
# Outline: as §1
# [8] = tested on: Klebsiella pneumoniae XNWB 0006; assay: as above; conditions: imipenem 4 μg/mL fixed
# Outline: as §1
# [9] = tested on: Klebsiella pneumoniae XNWB 0005; assay: MIC assay of test compounds combined with ceftazidime (8 μg/mL); conditions: ceftazidime 8 μg/mL fixed
# Outline: as §1
# [10] = tested on: Acinetobacter baumannii XNWB 0007; assay: as above; conditions: ceftazidime 8 μg/mL fixed
# Outline: as §1
# [11] = tested on: Klebsiella pneumoniae XNWB 0004; assay: as above; conditions: ceftazidime 8 μg/mL fixed
# Outline: as §1
# [12] = tested on: Klebsiella pneumoniae XNWB 0001; assay: as above; conditions: ceftazidime 8 μg/mL fixed
# Outline: as §1
# [13] = tested on: Pseudomonas aeruginosa XNWB 0008; assay: as above; conditions: ceftazidime 8 μg/mL fixed
# Outline: as §1
# [14] = tested on: Klebsiella pneumoniae XNWB 0003; assay: as above; conditions: ceftazidime 8 μg/mL fixed
# Outline: as §1
# [15] = tested on: Klebsiella pneumoniae XNWB 0002; assay: as above; conditions: ceftazidime 8 μg/mL fixed
# Outline: as §1
# [16] = tested on: Klebsiella pneumoniae XNWB 0006; assay: as above; conditions: ceftazidime 8 μg/mL fixed
# Outline: as §1
SMILES,The minimum concentration of test compounds combined with imipenem (4 μg/mL) for bacteriostasis [1],The minimum concentration of test compounds combined with imipenem (4 μg/mL) for bacteriostasis [2],The minimum concentration of test compounds combined with imipenem (4 μg/mL) for bacteriostasis [3],The minimum concentration of test compounds combined with imipenem (4 μg/mL) for bacteriostasis [4],The minimum concentration of test compounds combined with imipenem (4 μg/mL) for bacteriostasis [5],The minimum concentration of test compounds combined with imipenem (4 μg/mL) for bacteriostasis [6],The minimum concentration of test compounds combined with imipenem (4 μg/mL) for bacteriostasis [7],The minimum concentration of test compounds combined with imipenem (4 μg/mL) for bacteriostasis [8],The minimum concentration of test compounds combined with ceftazidime (8 μg/mL) for bacteriostasis [9],The minimum concentration of test compounds combined with ceftazidime (8 μg/mL) for bacteriostasis [10],The minimum concentration of test compounds combined with ceftazidime (8 μg/mL) for bacteriostasis [11],The minimum concentration of test compounds combined with ceftazidime (8 μg/mL) for bacteriostasis [12],The minimum concentration of test compounds combined with ceftazidime (8 μg/mL) for bacteriostasis [13],The minimum concentration of test compounds combined with ceftazidime (8 μg/mL) for bacteriostasis [14],The minimum concentration of test compounds combined with ceftazidime (8 μg/mL) for bacteriostasis [15],The minimum concentration of test compounds combined with ceftazidime (8 μg/mL) for bacteriostasis [16]
"N=C(N)NCC(O)c1cc([C@@H]2CC3(CC3)[C@@H]3CN2C(=O)N3OS(=O)(=O)O)no1 (stereo partly drawn) [Example 38, (1R,4S)-4-(5-(2-guanidyl-1-hydroxyethyl)isoxazol-3-yl)-6-oxo-5,7-diazaspiro[bicycle [3.2.1]octane-2,1′-cyclopropan]-7-yl sulfate]",A (A: <8 μg/mL),C (C: 16-128 μg/mL),A (A: <8 μg/mL),A (A: <8 μg/mL),A (A: <8 μg/mL),A (A: <8 μg/mL),A (A: <8 μg/mL),A (A: <8 μg/mL),A (A: <8 μg/mL),C (C: 16-128 μg/mL),A (A: <8 μg/mL),A (A: <8 μg/mL),B (B: 8-16 μg/mL),A (A: <8 μg/mL),A (A: <8 μg/mL),A (A: <8 μg/mL)
"N=C(N)NC[C@H](O)c1cc([C@@H]2CC3(CC3)[C@@H]3CN2C(=O)N3OS(=O)(=O)O)no1 [Example 39, (1R,4S)-4-(5-((S)-2-guanidyl-1-hydroxyethyl)isoxazol-3-yl)-6-oxo-5,7-diazaspiro [bicyclo[3.2.1]octane-2,1′-cyclopropan]-7-yl sulfate]",A (A: <8 μg/mL),B (B: 8-16 μg/mL),A (A: <8 μg/mL),A (A: <8 μg/mL),A (A: <8 μg/mL),A (A: <8 μg/mL),A (A: <8 μg/mL),A (A: <8 μg/mL),A (A: <8 μg/mL),C (C: 16-128 μg/mL),A (A: <8 μg/mL),A (A: <8 μg/mL),B (B: 8-16 μg/mL),A (A: <8 μg/mL),A (A: <8 μg/mL),A (A: <8 μg/mL)
"N=C(N)NC[C@@H](O)c1cc([C@@H]2CC3(CC3)[C@@H]3CN2C(=O)N3OS(=O)(=O)O)no1 [Example 40, (1R,4S)-4-(5-((R)-2-guanidyl-1-hydroxyethyl)isoxazol-3-yl)-6-oxo-5,7-diazaspiro [bicyclo[3.2.1]octane-2,1′-cyclopropan]-7-yl sulfate]",A (A: <8 μg/mL),C (C: 16-128 μg/mL),A (A: <8 μg/mL),A (A: <8 μg/mL),A (A: <8 μg/mL),A (A: <8 μg/mL),A (A: <8 μg/mL),A (A: <8 μg/mL),A (A: <8 μg/mL),C (C: 16-128 μg/mL),A (A: <8 μg/mL),A (A: <8 μg/mL),B (B: 8-16 μg/mL),A (A: <8 μg/mL),A (A: <8 μg/mL),A (A: <8 μg/mL)
"CNCCc1cc([C@@H]2CC3(CC3)[C@@H]3CN2C(=O)N3OS(=O)(=O)O)no1 [Example 42, (1R,4S)-4-(5-(2-(methylamino)ethyl)isoxazol-3-yl)-6-oxo-5,7-diazaspiro[bicycle[3.2.1]octane-2,1′-cyclopropan]-7-yl sulfate]",A (A: <8 μg/mL),C (C: 16-128 μg/mL),A (A: <8 μg/mL),A (A: <8 μg/mL),B (B: 8-16 μg/mL),A (A: <8 μg/mL),A (A: <8 μg/mL),A (A: <8 μg/mL),A (A: <8 μg/mL),C (C: 16-128 μg/mL),B (B: 8-16 μg/mL),A (A: <8 μg/mL),C (C: 16-128 μg/mL),A (A: <8 μg/mL),A (A: <8 μg/mL),A (A: <8 μg/mL)
